# From US4770998A, “Biochemical assay of aldehydes” (Mobil Oil Corporation, priority 1985, dated 1988)
# How the values were obtained:
# [1] = system: Mouse lymphoma L5178Y cells (clone 3.7.2C); assay: Mouse lymphoma mutagenicity assay (TK locus) with total growth, with S-9 activation, with FDH plus NAD; details: 2.5 and 5.0 ug/ml
# Experimental: Mouse lymphoma L5178Y cells (clone 3.7.2C) ATCC CRL 9518 are preferred since these indicator cells are useful for mutagenicity as well as for toxicity assay.
# The L5178Y mouse lymphoma indicator cells (clone 3.7.2C) are stored in liquid nitrogen. Cultures are thawed and are maintained in logarithmic growth by serial subculturing for up to six weeks. Cultures are grown at 37° C. in either a shaker incubator or a roller-harvester incubator. […] Cultures are cleansed on a weekly basis, as described by Clive et al. (1979), to reduce the frequency of spontaneous TK-/- mutants and thus maintain minimum mutant frequencies in the negative controls.
# The medium for suspension culture of the cells is Fischer's medium (for leukemic mice) supplemented with heat-inactivated horse serum (10%, v/v), sodium pyruvate (1 mM) and Pluronic (0.1%, w/v). […]
# Logarithmically growing cultures of recently cleansed lymphoma cells are counted and adjusted to 1×10^6 cells/ml for use in the assays. […]
# An expression period of 2 days is used to allow recovery, growth and expression of the TK-/- phenotype. Cell population densities will be determined on Day 1 (approximately 24 hours after treatment) and is adjusted to 3×10^5 cells/ml to maintain optimal growth rates. Cell population densities are then determined on Day 2 (approximately 44 hours after treatment), and appropriated cultures selected for mutant analysis. […]
# [2] = system: Mouse lymphoma L5178Y cells (clone 3.7.2C); assay: Mouse lymphoma mutagenicity assay (TK locus) with total growth, nonactivated (without S-9), with and without FDH plus NAD; type: cell-based
# Experimental: All tests preferably are performed in duplicate.
# In this example the dose-dependent mutagenic effect of formaldehyde on lymphoma cultures, both with and without FDH plus NAD, was investigated in the absence of S-9 activation.
# [3] = known stoichiometric release; cited from earlier work
structure (smiles),measurement,setting,value
"Cc1c2ccccc2c(C)c2c1ccc1ccccc12 [DMBA, 7,12-dimethylbenz[a]anthracene]",reduction of mutagenicity with addition of FDH plus NAD,[1],No reduction of toxicity or mutagencity
same,reduction of toxicity with addition of FDH plus NAD,[1],No reduction of toxicity or mutagencity
"CCOS(C)(=O)=O [EMS, ethylmethane sulfonate]",reduction of mutagenicity with addition of FDH plus NAD,"[2]; 0.5 and 1.0 ul/ml, without S-9",No reduction of toxicity or mutagenicity
same,reduction of toxicity with addition of FDH plus NAD,"[2]; 0.5 and 1.0 ul/ml, without S-9",No reduction of toxicity or mutagenicity
"O=[N+]([O-])C(CO)(CO)CO [TNM, Tris-(hydroxymethyl) nitromethane]",total growth / toxicity,[2],Dose dependent increases in toxicity and mutagenicity
same,toxicity with FDH and NAD,[2],absent
same,mutagenicity with FDH and NAD,"[2]; supplemented with FDH and NAD, without S-9",absent
same,mutant frequency / mutagenicity,"[2]; without FDH/NAD, without S-9",Dose dependent increases in toxicity and mutagenicity
same,formaldehyde released,[3],3 mols of formaldehyde per mol of TNM
